In article PMC10176470, “Engaging a Non-catalytic Cysteine Residue Drives Potent and Selective Inhibition of Caspase-6” (Journal of the American Chemical Society, 2023):

Key:
Test in all cases: SILAC proteomics / in-gel fluorescence, competition of probe 13-t labeling by 3a
[1] = molecular target: proteins of HEK293T cells transiently overexpressing caspase-6 (Homo sapiens, UniProt Q14204)
[2] = molecular target: proteins of HEK293T cells transiently overexpressing caspase-6 (Homo sapiens, UniProt P11388); details: Comp; protein TOP2A P11388
[3] = molecular target: proteins of HEK293T cells transiently overexpressing caspase-6 (Homo sapiens, UniProt P62753); details: Comp; protein RPS6 P62753
[4] = molecular target: proteins of HEK293T cells transiently overexpressing caspase-6 (Homo sapiens, UniProt O00571)
[5] = molecular target: proteins of HEK293T cells transiently overexpressing caspase-6 (Homo sapiens, UniProt P13667); details: Comp; protein PDIA4 P13667
[6] = molecular target: proteins of HEK293T cells transiently overexpressing caspase-6 (Homo sapiens, UniProt Q04637); details: Comp; protein EIF4G1 Q04637
[7] = molecular target: proteins of HEK293T cells transiently overexpressing caspase-6 (Homo sapiens, UniProt O14980); details: Comp; protein XPO1 O14980
[8] = molecular target: proteins of HEK293T cells transiently overexpressing caspase-6 (Homo sapiens, UniProt P60842); details: Comp; protein EIF4A1 P60842
proteins of HEK293T cells transiently overexpressing caspase-6 (Homo sapiens, UniProt P60842), sequence (P60842 whole entry): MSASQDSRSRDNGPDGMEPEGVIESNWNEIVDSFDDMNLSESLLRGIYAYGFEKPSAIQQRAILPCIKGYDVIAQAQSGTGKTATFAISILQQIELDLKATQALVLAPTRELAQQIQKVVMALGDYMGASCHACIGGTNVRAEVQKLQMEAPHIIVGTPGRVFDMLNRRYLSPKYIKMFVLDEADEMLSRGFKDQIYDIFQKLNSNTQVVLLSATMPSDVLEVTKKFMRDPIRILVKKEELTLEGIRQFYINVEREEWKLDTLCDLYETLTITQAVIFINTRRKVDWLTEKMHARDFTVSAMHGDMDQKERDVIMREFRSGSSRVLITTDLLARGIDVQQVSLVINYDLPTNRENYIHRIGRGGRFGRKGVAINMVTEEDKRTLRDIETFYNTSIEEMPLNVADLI

[9] = molecular target: proteins of HEK293T cells transiently overexpressing caspase-6 (Homo sapiens, UniProt P38606); details: Comp; protein ATP6V1A P38606
[10] = molecular target: proteins of HEK293T cells transiently overexpressing caspase-6 (Homo sapiens, UniProt P39023); details: Comp; protein RPL3 P39023
[11] = molecular target: proteins of HEK293T cells transiently overexpressing caspase-6 (Homo sapiens, UniProt P38646); details: Comp; protein HSPA9 P38646
[12] = molecular target: T1, proteins of HEK293T cells transiently overexpressing caspase-6 (Homo sapiens, UniProt Q9BQG0); details: Comp; protein MYBBP1A Q9BQG0
T1 sequence (Q9BQG0 1-1328): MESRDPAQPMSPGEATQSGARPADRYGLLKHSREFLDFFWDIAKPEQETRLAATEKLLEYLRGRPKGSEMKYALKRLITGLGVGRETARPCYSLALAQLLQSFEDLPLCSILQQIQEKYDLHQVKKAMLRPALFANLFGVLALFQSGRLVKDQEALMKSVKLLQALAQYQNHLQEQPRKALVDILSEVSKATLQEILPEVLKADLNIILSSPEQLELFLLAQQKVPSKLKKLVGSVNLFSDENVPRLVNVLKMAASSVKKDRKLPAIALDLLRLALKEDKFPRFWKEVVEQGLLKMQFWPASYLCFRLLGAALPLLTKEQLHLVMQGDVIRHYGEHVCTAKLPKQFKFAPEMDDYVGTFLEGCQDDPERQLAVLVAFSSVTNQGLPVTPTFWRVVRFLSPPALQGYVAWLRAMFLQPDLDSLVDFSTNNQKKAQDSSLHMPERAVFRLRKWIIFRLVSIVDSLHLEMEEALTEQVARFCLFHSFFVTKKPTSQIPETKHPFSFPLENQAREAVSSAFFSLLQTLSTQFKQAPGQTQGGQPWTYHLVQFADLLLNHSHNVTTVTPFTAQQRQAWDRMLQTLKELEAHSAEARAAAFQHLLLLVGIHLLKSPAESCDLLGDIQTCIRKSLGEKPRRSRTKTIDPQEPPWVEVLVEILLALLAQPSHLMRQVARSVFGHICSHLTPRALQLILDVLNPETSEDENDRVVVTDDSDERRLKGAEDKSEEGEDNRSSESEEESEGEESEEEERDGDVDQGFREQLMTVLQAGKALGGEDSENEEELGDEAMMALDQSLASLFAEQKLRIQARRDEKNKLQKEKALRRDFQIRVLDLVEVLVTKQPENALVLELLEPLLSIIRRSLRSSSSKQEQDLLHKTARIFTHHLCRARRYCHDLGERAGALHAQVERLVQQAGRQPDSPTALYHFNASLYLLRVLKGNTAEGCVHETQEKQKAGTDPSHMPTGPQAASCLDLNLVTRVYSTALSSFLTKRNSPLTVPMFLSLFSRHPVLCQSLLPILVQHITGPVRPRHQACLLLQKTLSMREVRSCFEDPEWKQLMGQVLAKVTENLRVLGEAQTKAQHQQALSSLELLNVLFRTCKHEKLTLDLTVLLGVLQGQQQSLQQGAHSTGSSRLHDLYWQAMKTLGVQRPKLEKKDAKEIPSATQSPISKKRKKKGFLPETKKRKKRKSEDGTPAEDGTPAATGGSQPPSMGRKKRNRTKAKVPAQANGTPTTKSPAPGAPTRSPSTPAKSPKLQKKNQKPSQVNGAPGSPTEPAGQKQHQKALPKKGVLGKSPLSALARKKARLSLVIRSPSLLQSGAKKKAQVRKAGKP

[13] = molecular target: proteins of HEK293T cells transiently overexpressing caspase-6 (Homo sapiens, UniProt P54886); details: Comp; protein ALDH18A1 P54886
[14] = protein DYNC1H1 (Q14204), Exp Comp, analysis C6, p 0.1250, 4 peptides
[15] = protein DDX3X (O00571), Exp Comp, analysis C6, p 0.1250, 4 peptides

proteins of HEK293T cells transiently overexpressing caspase-6 (Homo sapiens, UniProt Q14204), sequence (Q14204 whole entry): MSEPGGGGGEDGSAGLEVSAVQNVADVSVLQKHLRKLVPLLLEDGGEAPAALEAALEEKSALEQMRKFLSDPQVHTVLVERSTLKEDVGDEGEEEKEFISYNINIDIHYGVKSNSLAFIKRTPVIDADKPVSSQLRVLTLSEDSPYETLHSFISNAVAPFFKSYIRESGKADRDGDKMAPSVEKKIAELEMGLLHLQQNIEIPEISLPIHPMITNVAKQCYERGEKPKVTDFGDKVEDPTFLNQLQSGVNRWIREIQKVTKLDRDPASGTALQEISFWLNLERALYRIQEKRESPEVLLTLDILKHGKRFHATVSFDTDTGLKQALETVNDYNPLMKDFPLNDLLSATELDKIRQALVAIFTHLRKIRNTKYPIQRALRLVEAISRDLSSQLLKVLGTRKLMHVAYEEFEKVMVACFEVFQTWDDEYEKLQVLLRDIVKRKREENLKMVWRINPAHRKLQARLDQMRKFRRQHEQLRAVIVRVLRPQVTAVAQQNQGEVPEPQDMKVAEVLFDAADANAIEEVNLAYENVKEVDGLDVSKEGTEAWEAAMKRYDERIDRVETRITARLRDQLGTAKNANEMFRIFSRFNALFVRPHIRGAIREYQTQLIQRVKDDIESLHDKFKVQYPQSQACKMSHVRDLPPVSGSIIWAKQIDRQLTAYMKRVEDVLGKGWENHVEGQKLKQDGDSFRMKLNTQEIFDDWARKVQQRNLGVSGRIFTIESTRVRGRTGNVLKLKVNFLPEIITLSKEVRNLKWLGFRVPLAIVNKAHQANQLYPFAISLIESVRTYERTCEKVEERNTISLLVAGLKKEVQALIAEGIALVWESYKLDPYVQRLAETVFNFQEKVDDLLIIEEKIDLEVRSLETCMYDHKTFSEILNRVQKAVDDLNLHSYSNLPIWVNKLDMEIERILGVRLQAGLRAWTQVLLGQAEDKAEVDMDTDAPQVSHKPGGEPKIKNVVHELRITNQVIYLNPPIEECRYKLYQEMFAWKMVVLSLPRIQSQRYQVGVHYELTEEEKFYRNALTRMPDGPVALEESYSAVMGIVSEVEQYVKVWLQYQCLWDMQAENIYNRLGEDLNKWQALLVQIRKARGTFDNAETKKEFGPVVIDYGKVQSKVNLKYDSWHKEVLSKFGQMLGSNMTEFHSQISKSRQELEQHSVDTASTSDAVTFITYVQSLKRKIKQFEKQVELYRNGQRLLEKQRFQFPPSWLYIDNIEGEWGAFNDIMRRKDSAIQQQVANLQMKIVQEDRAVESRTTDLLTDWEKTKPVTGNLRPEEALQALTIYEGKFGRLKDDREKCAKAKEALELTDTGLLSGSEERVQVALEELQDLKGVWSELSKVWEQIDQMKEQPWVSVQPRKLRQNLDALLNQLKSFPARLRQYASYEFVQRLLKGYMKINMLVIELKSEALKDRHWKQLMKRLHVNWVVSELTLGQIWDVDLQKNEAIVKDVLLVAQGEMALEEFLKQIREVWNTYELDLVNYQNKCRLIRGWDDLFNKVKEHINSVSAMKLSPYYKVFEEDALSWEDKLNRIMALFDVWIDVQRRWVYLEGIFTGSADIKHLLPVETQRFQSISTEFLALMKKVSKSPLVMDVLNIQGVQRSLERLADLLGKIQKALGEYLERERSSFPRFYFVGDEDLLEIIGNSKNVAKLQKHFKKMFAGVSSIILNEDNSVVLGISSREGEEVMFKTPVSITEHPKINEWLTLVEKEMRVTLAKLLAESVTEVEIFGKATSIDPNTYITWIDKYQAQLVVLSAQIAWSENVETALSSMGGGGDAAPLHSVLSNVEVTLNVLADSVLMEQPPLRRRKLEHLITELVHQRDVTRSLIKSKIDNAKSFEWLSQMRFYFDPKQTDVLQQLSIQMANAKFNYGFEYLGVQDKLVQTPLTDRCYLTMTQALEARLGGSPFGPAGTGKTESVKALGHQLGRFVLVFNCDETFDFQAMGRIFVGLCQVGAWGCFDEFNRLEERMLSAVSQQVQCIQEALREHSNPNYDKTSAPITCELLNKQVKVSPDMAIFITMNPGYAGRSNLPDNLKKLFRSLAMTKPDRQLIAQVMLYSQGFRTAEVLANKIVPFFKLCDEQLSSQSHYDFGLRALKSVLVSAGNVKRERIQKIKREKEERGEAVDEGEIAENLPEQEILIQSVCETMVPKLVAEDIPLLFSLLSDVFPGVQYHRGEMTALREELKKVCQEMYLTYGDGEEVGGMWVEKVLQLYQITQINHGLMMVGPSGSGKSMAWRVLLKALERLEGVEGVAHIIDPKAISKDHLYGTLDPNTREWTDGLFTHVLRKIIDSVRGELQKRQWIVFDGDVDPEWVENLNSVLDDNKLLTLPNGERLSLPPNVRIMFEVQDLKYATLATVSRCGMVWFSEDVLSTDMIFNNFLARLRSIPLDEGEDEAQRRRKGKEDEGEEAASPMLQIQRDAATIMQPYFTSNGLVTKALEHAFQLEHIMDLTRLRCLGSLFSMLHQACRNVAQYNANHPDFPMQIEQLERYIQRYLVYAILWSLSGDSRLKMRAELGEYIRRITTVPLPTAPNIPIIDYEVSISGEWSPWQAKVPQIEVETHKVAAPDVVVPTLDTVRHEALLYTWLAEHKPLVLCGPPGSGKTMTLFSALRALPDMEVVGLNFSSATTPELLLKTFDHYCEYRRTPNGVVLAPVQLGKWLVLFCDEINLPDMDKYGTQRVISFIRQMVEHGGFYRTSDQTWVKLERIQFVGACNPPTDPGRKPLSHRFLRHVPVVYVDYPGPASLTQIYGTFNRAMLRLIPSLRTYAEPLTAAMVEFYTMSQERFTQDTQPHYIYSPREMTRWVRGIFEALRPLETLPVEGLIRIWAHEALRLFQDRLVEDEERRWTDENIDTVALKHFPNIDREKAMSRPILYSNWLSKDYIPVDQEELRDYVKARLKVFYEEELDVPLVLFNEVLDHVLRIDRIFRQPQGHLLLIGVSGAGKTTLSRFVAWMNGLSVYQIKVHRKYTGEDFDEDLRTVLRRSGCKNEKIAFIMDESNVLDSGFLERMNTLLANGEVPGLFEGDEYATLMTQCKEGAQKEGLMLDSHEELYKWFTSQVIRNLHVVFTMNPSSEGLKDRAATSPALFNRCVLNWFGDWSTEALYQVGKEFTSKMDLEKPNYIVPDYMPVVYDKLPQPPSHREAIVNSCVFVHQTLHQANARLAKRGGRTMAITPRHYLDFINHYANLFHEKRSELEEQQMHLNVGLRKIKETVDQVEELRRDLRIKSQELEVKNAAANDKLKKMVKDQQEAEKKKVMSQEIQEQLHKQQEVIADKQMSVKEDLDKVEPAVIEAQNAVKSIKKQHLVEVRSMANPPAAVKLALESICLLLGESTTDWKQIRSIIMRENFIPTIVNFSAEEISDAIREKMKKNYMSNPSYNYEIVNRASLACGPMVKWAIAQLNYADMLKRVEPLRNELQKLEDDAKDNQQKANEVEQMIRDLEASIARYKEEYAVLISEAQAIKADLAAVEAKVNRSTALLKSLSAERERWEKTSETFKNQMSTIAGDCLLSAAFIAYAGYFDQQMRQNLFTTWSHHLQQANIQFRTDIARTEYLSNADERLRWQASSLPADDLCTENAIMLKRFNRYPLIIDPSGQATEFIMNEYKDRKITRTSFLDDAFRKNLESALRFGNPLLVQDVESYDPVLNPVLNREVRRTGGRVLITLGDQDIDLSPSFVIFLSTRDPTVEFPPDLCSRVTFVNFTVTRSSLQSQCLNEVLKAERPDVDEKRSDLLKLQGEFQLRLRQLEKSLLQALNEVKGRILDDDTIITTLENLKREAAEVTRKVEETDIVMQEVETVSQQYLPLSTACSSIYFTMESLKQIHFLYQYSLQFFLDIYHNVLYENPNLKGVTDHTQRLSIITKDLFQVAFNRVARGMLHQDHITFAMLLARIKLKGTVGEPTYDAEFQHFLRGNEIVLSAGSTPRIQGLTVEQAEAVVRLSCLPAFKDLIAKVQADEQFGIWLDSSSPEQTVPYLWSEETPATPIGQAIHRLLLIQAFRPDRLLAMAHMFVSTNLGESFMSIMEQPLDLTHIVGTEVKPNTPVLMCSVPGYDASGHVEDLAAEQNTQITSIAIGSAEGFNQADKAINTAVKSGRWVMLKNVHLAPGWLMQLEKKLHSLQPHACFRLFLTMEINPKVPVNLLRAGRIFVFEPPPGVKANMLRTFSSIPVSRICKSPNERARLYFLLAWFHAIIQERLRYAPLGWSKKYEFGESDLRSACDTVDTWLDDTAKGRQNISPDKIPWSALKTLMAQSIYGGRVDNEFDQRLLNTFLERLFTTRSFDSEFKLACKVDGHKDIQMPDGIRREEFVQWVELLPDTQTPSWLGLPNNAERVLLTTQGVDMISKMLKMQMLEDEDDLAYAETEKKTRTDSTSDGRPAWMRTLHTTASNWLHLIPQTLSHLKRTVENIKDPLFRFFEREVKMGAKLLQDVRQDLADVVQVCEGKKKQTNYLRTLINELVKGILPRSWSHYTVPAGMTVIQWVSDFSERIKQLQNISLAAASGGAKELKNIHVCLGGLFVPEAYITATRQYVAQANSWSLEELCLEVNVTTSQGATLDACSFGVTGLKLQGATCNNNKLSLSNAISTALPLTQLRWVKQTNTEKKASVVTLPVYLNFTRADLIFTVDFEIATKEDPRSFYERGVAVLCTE

Question: Which enrich.exp.med ([1]; Comp, protein DYNC1H1 Q14204) does the source give for `C=CS(=O)(=O)N1C[C@H](C(=O)Nc2ccc(OC(F)(F)F)cc2)C[C@@H](c2ccccc2)C1` [3a] here?
Answer: The enrich.exp.med was 1.335.

Question: What about the enrich.exp.med.lin [1, 14] of the same compound?
Answer: The enrich.exp.med.lin was 2.5227.

Question: What about the enrich.exp.med.log2 [1, 14] of the same compound?
Answer: The enrich.exp.med.log2 was 1.335.

Question: What about the enrich.exp.med [2] of the same compound?
Answer: The enrich.exp.med was 0.7274.

Question: And the enrich.exp.med [3]?
Answer: Its enrich.exp.med is 0.7055.

Question: And the enrich.exp.med ([4]; Comp, protein DDX3X O00571)?
Answer: Its enrich.exp.med is 1.089.

Question: And the enrich.exp.med.lin [4, 15]?
Answer: The enrich.exp.med.lin was 2.128.

Question: And the enrich.exp.med.log2 [4, 15]?
Answer: The enrich.exp.med.log2 was 1.089.

Question: What about the enrich.exp.med [5] of the same compound?
Answer: Its enrich.exp.med is 0.6419.

Question: And the enrich.exp.med [6]?
Answer: Its enrich.exp.med is 0.702.

Question: What about the enrich.exp.med [7] of the same compound?
Answer: The enrich.exp.med was 0.6797.

Question: And the enrich.exp.med [8]?
Answer: The enrich.exp.med was 0.5985.

Question: And the enrich.exp.med [9]?
Answer: The enrich.exp.med was 0.8033.

Question: What about the enrich.exp.med [10] of the same compound?
Answer: Its enrich.exp.med is 0.8762.

Question: And the enrich.exp.med [11]?
Answer: The enrich.exp.med was 0.6522.

Question: What about the enrich.exp.med [12] of the same compound?
Answer: The enrich.exp.med was 0.8156.

Question: And the enrich.exp.med [13]?
Answer: The enrich.exp.med was 0.7021.
